Assay results reported in patent publication US11447471B2, “α,β-unsaturated amide compound” (KYOWA KIRIN CO., LTD., priority 2017, dated 2022).

The compounds below were run on NCI-H226 cells (assay: Cell growth inhibitory effect on human mesothelioma cell line (cell counting kit 8, 6 days)). Details: NCI-H226, 144 h.
Type: cell-based
Text: (§1) NCI-H226 cells, a human mesothelioma cell line (ATCC, CRL-5826), NCI-H322 cells, a human lung cancer cell line (the European Collection of Authenticated Cell Cultures, 95111734), OUTOKO cells, a human ovarian cancer cell line (JCRB cell bank, KRB1048) and […] were each subcultured by keeping the cell density under 80% in a RPMI1640 culture medium with 10% fetal bovine serum (FBS). NCI-H226 cells, NCI-H322 cells and SSP-25 cells were each suspended in the RPMI1640 culture medium mentioned above, and plated to a 96-well flat-bottom plate at 500 cells/well in each well, and incubated at 37° C. in an incubator with 5% CO2 for one day. After the incubation, the evaluation of cell growth inhibitory activity was started. OVTOKO cells were suspended in the RPMI1640 culture medium mentioned above, and plated to a 96-well flat-bottom plate at 250 cells/well in each well, and incubated it at 37° C. in an incubator with 5% CO2 for one day. After the incubation, the evaluation of the cell growth inhibitory activity was started. The next day, a test compound was serially diluted to 5 times of its final concentration in the RPM11640 culture medium mentioned above, and the diluted solution was added to each well. In this case, the final concentration of DMSO in each well was adjusted to 0.1%. After the test compound was added, cells were incubated at 37° C. in an incubator with 5% CO2 for 6 days. At the addition of the test compound and 6 days after the addition, the cell counting measurement was performed using a cell counting kit 8 (made by DOJINDO) according to a protocol equivalent to DOJINDO's recommendation. A reagent contained in the kit was added to each plate and color reaction was performed for 2 or 3 hours at 37° C. in an incubator with 5% CO2. After the reaction, an absorbance at wavelength of 450 nm was measured using a microplate reader. A growth inhibition rate was calculated according to the following formula, from which the concentration of a test compound at which cell growth was inhibited by 50% (GI50 value) was determined.

| GI50 | Structure (SMILES) |
| --- | --- |
| < 100 nM | [H]/C=C/C(=O)NC1CCOc2c1ccc(Oc1ccc(C(F)(F)F)cc1)c2F (racemic) [Compound 31, N-[8-Fluoro-7-{4-(trifluoromethyl)phenoxy}chroman-4-yl]acrylamide] |
| < 100 nM | [H]/C=C/C(=O)NC1CCOc2c1ccc(Oc1ccc(C(F)(F)F)cc1)c2OC (racemic) [Compound 33, N-[8-Methoxy-7-{4-(trifluoromethyl)phenoxy}chroman-4-yl]acrylamide] |
| 100 to 1000 nM | C=CC(=O)N[C@@H]1CC[C@H](Oc2ccccc2)c2ncccc21 (relative stereo) [Compound 67, cis-N-(8-Phenoxy-5,6,7,8-tetrahydroquinolin-5-yl)acrylamide] |
| < 100 nM | C=CC(=O)N[C@@H]1CC[C@H](Oc2ccc(Cl)c(Cl)c2)c2nc(Cl)ccc21 (relative stereo) [Compound 178, cis-N-{2-Chloro-8-(3,4-dichlorophenoxy)-5,6,7,8-tetrahydroquinolin-5-yl}acrylamide] |
| 100 to 1000 nM | C=CC(=O)N[C@@H]1CC[C@H](Oc2cnc(Cl)c(Cl)c2)c2nc(Cl)ccc21 (relative stereo) [Compound 181, cis-N-[2-Chloro-8-{(5,6-dichloropyridin-3-yl)oxy}-5,6,7,8-tetrahydroquinolin-5-yl]acrylamide] |
| 100 to 1000 nM | C=CC(=O)N[C@@H]1CC[C@H](Oc2ccc(C(F)(F)F)cc2)c2nc(CC)ccc21 (relative stereo) [Compound 186, cis-N-[2-ethyl-8-{4-(trifluoromethyl)phenoxy}-5,6,7,8-tetrahydroquinolin-5-yl]acrylamide] |
| 100 to 1000 nM | C=CC(=O)NC1CC[C@@H](Oc2ccc(Cl)cc2)c2nc(OC)ccc21 (stereo in doubt) [Compound 81, trans-N-{8-(4-Chlorophenoxy)-2-methoxy-5,6,7,8-tetrahydroquinolin-5-yl}acrylamide] |
| 100 to 1000 nM | C=CC(=O)Nc1cncc(Oc2ccc(OC(C)C)nc2)c1 [Compound 110, N-[5-{(6-Isopropoxypyridin-3-yl)oxy}pyridin-3-yl]acrylamide] |
| 100 to 1000 nM | O=C(/C=C/C(F)(F)F)NCc1ccc(Oc2ccc(Cl)cc2)c2ncccc12 [Compound 135, (E)-N-[{8-(4-Chlorophenoxy)quinolin-5-yl}methyl]-4,4,4-trifluoro-2-butenamide] |
| 100 to 1000 nM | C=CC(=O)NCc1ccc(Oc2cnc(C(F)(F)F)nc2)c2ncccc12 [Compound 196, N-{(8-[{2-(Trifluoromethyl)pyrimidin-5-yl}oxy]quinolin-5-yl)methyl}acrylamide] |
| 100 to 1000 nM | C=CC(=O)NCc1nc2c(Oc3ccc(C(F)(F)F)cc3)cccc2o1 [Compound 254, N-([4-{4-(Trifluoromethyl)phenoxy}benzo[d]oxazol-2-yl]methyl)acrylamide] |
| 100 to 1000 nM | C=CC(=O)NCc1nc2cc(Oc3ccc(C(F)(F)F)cc3)ccc2o1 [Compound 255, N-([5-{4-(Trifluoromethyl)phenoxy}benzo[d]oxazol-2-yl]methyl)acrylamide] |
| 100 to 1000 nM | C=CC(=O)NC1CCCOc2cc(Oc3ccc(C(F)(F)F)cc3)ccc21 (stereo not shown) [Compound 261, N-[8-{4-(Trifluoromethyl)phenoxy}-2,3,4,5-tetrahydrobenzo[b]oxepin-5-yl]acrylamide] |
| 100 to 1000 nM | C=CC(=O)NCc1ccc(CCc2ccc(C(F)(F)F)cc2)c2nc(C)oc12 [Compound 267, N-([2-Methyl-4-{4-(trifluoromethyl)phenethyl}benzo[d]oxazol-7-yl]methyl)acrylamide] |

The compounds below were run on OVTOKO cells (assay: Cell growth inhibitory effect on human ovarian cancer cell line (cell counting kit 8, 6 days)). Details: 144 h, 6 days incubation.
Type: cell-based
Text: as §1

| GI50 | Structure (SMILES) |
| --- | --- |
| ≤ 3000 nM | [H]/C=C/C(=O)NC1CCOc2c1ccc(Oc1ccc(C(F)(F)F)cc1)c2F (racemic) [Compound 31, N-[8-Fluoro-7-{4-(trifluoromethyl)phenoxy}chroman-4-yl]acrylamide] |
| ≤ 3000 nM | [H]/C=C/C(=O)NC1CCOc2c1ccc(Oc1ccc(C(F)(F)F)cc1)c2OC (racemic) [Compound 33, N-[8-Methoxy-7-{4-(trifluoromethyl)phenoxy}chroman-4-yl]acrylamide] |
| ≤ 3000 nM | C=CC(=O)NCc1ccc(Oc2ccc(C(F)(F)F)cc2)c2ncc(C)cc12 [Compound 199, N-([3-Methyl-8-{4-(trifluoromethyl)phenoxy}quinolin-5-yl]methyl)acrylamide] |
| ≤ 3000 nM | C=CC(=O)NCc1ccc(Oc2ccc(C(F)(F)F)nc2)c2ncc(C)cc12 [Compound 200, N-{(3-Methyl-8-[{6-(trifluoromethyl)pyridin-3-yl}oxy]quinolin-5-yl)methyl}acrylamide] |
| ≤ 3000 nM | C=CC(=O)NCc1ccc(Oc2ccc(C(F)(F)F)cc2)c2nccc(C)c12 [Compound 201, N-([4-Methyl-8-{4-(trifluoromethyl)phenoxy}quinolin-5-yl]methyl)acrylamide] |
| ≤ 3000 nM | C=CC(=O)NCc1ccc(Sc2ccc(C(F)(F)F)cc2)c2ncccc12 [Compound 202, N-{(8-[{4-(Trifluoromethyl)phenyl}thio]quinolin-5-yl)methyl}acrylamide] |
| ≤ 3000 nM | C=CC(=O)NCc1ccc(Nc2ccc(C(F)(F)F)cc2)c2ncccc12 [Compound 203, N-{(8-[{4-(Trifluoromethyl)phenyl}amino]quinolin-5-yl)methyl}acrylamide] |
| ≤ 3000 nM | C=CC(=O)NCc1ccc(C(O)c2ccc(C(F)(F)F)cc2)c2ncccc12 (stereo not shown) [Compound 206, N-{(8-[Hydroxy{4-(trifluoromethyl)phenyl}methyl]quinolin-5-yl)methyl}acrylamide] |
| ≤ 3000 nM | C=CC(=O)NCc1ccc(C(=O)c2ccc(C(F)(F)F)cc2)c2ncccc12 [Compound 208, N-([8-{4-(Trifluoromethyl)benzoyl}quinolin-5-yl]methyl)acrylamide] |
| ≤ 3000 nM | C=CC(=O)NCc1ccc(Cc2ccc(C(F)(F)F)cc2)c2ncccc12 [Compound 211, N-([8-{4-(Trifluoromethyl)benzyl}quinolin-5-yl]methyl)acrylamide] |
| ≤ 3000 nM | C=CC(=O)NCc1ccc(Oc2ccc(C(F)(F)F)cc2)c2nc(C)ccc12 [Compound 212, N-([2-Methyl-8-{4-(trifluoromethyl)phenoxy}quinolin-5-yl]methyl)acrylamide] |
| ≤ 3000 nM | C=CC(=O)NCc1ccc(Oc2ccc(C(F)(F)F)cc2)c2cccnc12 [Compound 216, N-([5-{4-(Trifluoromethyl)phenoxy}quinolin-8-yl]methyl)acrylamide] |
| ≤ 3000 nM | C=CC(=O)NCc1ccc(Oc2ccc(C(F)(F)F)nc2)c2cccnc12 [Compound 219, N-{(5-[{6-(Trifluoromethyl)pyridin-3-yl}oxy]quinolin-8-yl)methyl}acrylamide] |
| ≤ 3000 nM | C=CC(=O)NCc1cnc(Oc2ccc(C(F)(F)F)cc2)c2ccccc12 [Compound 222, N-([1-{4-(Trifluoromethyl)phenoxy}isoquinolin-4-yl]methyl)acrylamide] |
| ≤ 3000 nM | C=CC(=O)NCc1ccc(Oc2ccc(C(F)(F)F)cc2)c2cnccc12 [Compound 223, N-([8-{4-(Trifluoromethy)phenoxy}isoquinolin-5-yl]methyl)acrylamide] |
| ≤ 3000 nM | C=CC(=O)NCc1ncc(Oc2ccc(C(F)(F)F)cc2)c2ccccc12 [Compound 224, N-([4-{4-(Trifluorophenyl)phenoxy}isoquinolin-1-yl]methyl)acrylamide] |
| ≤ 3000 nM | C=CC(=O)Nc1cnc(Oc2ccc(Cl)cc2)c2ncccc12 [Compound 226, N-{8-(4-chlorophenoxy)-1,7-naphthyridin-5-yl}acrylamide] |
| ≤ 3000 nM | C=CC(=O)NCc1cnc(Oc2ccc(Cl)cc2)c2ncccc12 [Compound 227, N-[{8-(4-Chlorophenoxy)-1,7-naphthyridin-5-yl}methyl]acrylamide] |
| ≤ 3000 nM | C=CC(=O)NC1COc2c(cccc2Oc2ccc(C(F)(F)F)nc2)C1 (stereo not shown) [Compound 229, N-(8-[{6-(Trifluoromethyl)pyridin-3-yl}oxy]chroman-3-yl)acrylamide] |
| ≤ 3000 nM | C=CC(=O)NCc1ccc(CCc2ccc(C(F)(F)F)cc2)c2nc(C)oc12 [Compound 267, N-([2-Methyl-4-{4-(trifluoromethyl)phenethyl}benzo[d]oxazol-7-yl]methyl)acrylamide] |
